PubChem BioAssay (NCI)
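Assay format: 96-well plates, 48-hour exposure. At the GI50, growth is halved. The concentration for full growth arrest is given as TGI.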

Columns and labels:
Assay in all cases: NCI anticancer screen, dose series, 48 h
OVCAR-3 ovarian = tested on: OVCAR-3 ovarian
SF-295 CNS = tested on: SF-295 CNS
SK-MEL-28 melanoma = tested on: SK-MEL-28 melanoma
OVCAR-5 ovarian = tested on: OVCAR-5 ovarian
RXF 393 renal = tested on: RXF 393 renal
SK-MEL-5 melanoma = tested on: SK-MEL-5 melanoma
SF-268 CNS = tested on: SF-268 CNS
A498 renal = tested on: A498 renal
CAKI-1 renal = tested on: CAKI-1 renal
MOLT-4 leukemia = tested on: MOLT-4 leukemia
DU-145 prostate = tested on: DU-145 prostate
SW-620 colon = tested on: SW-620 colon
SN12C renal = tested on: SN12C renal
TK-10 renal = tested on: TK-10 renal
COLO 205 colon = tested on: COLO 205 colon
SF-539 CNS = tested on: SF-539 CNS
M14 melanoma = tested on: M14 melanoma
CCRF-CEM leukemia = tested on: CCRF-CEM leukemia
IGROV1 ovarian = tested on: IGROV1 ovarian
PC-3 prostate = tested on: PC-3 prostate
UACC-257 melanoma = tested on: UACC-257 melanoma
MDA-MB-435 = tested on: MDA-MB-435
A549 NSCLC = tested on: A549 NSCLC
SK-MEL-2 melanoma = tested on: SK-MEL-2 melanoma
KM12 colon = tested on: KM12 colon
SNB-75 CNS = tested on: SNB-75 CNS
NCI-H460 lung = tested on: NCI-H460 lung
NCI/ADR-RES ovarian = tested on: NCI/ADR-RES ovarian
HCC-2998 colon = tested on: HCC-2998 colon
EKVX NSCLC = tested on: EKVX NSCLC
LOX IMVI melanoma = tested on: LOX IMVI melanoma
MDA-MB-231 breast = tested on: MDA-MB-231 breast
HOP-62 NSCLC = tested on: HOP-62 NSCLC
HS 578T breast = tested on: HS 578T breast
MCF7 breast = tested on: MCF7 breast
NCI-H522 lung = tested on: NCI-H522 lung
U251 CNS = tested on: U251 CNS
SNB-19 CNS = tested on: SNB-19 CNS
HT29 colon = tested on: HT29 colon
MALME-3M melanoma = tested on: MALME-3M melanoma
K-562 leukemia = tested on: K-562 leukemia
786-0 renal = tested on: 786-0 renal
OVCAR-8 ovarian = tested on: OVCAR-8 ovarian
SK-OV-3 ovarian = tested on: SK-OV-3 ovarian
BT-549 breast = tested on: BT-549 breast
HCT-116 colon = tested on: HCT-116 colon
NCI-H226 lung = tested on: NCI-H226 lung
OVCAR-4 ovarian = tested on: OVCAR-4 ovarian
NCI-H23 lung = tested on: NCI-H23 lung
UACC-62 melanoma = tested on: UACC-62 melanoma
T-47D breast = tested on: T-47D breast
HCT-15 colon = tested on: HCT-15 colon
ACHN renal = tested on: ACHN renal
UO-31 renal = tested on: UO-31 renal

COc1ccc(S(=O)(=O)N2CCN(C(=O)OCc3ccccc3)CC2C(=O)NO)cc1 (stereo not drawn)
GI50 (OVCAR-3 ovarian): 12.1 µM | TGI (OVCAR-3 ovarian): > 25 µM | GI50 (SF-295 CNS): > 25 µM | TGI (SF-295 CNS): > 25 µM | GI50 (SK-MEL-28 melanoma): > 25 µM | TGI (SK-MEL-28 melanoma): > 25 µM | GI50 (OVCAR-5 ovarian): > 25 µM | TGI (OVCAR-5 ovarian): > 25 µM | GI50 (RXF 393 renal): > 25 µM | TGI (RXF 393 renal): > 25 µM | GI50 (SK-MEL-5 melanoma): > 25 µM | TGI (SK-MEL-5 melanoma): > 25 µM | GI50 (SF-268 CNS): > 25 µM | TGI (SF-268 CNS): > 25 µM | GI50 (A498 renal): 24.6 µM | TGI (A498 renal): > 25 µM | GI50 (CAKI-1 renal): 10.1 µM | TGI (CAKI-1 renal): > 25 µM | GI50 (MOLT-4 leukemia): 5.37 µM | TGI (MOLT-4 leukemia): 18.4 µM | GI50 (DU-145 prostate): 18.7 µM | TGI (DU-145 prostate): > 25 µM | GI50 (SW-620 colon): > 25 µM | TGI (SW-620 colon): > 25 µM | GI50 (SN12C renal): > 25 µM | TGI (SN12C renal): > 25 µM | GI50 (TK-10 renal): 10.9 µM | TGI (TK-10 renal): > 25 µM | GI50 (COLO 205 colon): > 25 µM | TGI (COLO 205 colon): > 25 µM | GI50 (SF-539 CNS): > 25 µM | TGI (SF-539 CNS): > 25 µM | GI50 (M14 melanoma): > 25 µM | TGI (M14 melanoma): > 25 µM | GI50 (CCRF-CEM leukemia): 6.2 µM | TGI (CCRF-CEM leukemia): > 25 µM | GI50 (IGROV1 ovarian): 4.09 µM | TGI (IGROV1 ovarian): > 25 µM | GI50 (PC-3 prostate): 17.6 µM | TGI (PC-3 prostate): > 25 µM | GI50 (UACC-257 melanoma): > 25 µM | TGI (UACC-257 melanoma): > 25 µM | GI50 (MDA-MB-435): 13.4 µM | TGI (MDA-MB-435): > 25 µM | GI50 (A549 NSCLC): > 25 µM | TGI (A549 NSCLC): > 25 µM | GI50 (SK-MEL-2 melanoma): > 25 µM | TGI (SK-MEL-2 melanoma): > 25 µM | GI50 (KM12 colon): > 25 µM | TGI (KM12 colon): > 25 µM | GI50 (SNB-75 CNS): > 25 µM | TGI (SNB-75 CNS): > 25 µM | GI50 (NCI-H460 lung): > 25 µM | TGI (NCI-H460 lung): > 25 µM | GI50 (NCI/ADR-RES ovarian): > 25 µM | TGI (NCI/ADR-RES ovarian): > 25 µM | GI50 (HCC-2998 colon): > 25 µM | TGI (HCC-2998 colon): > 25 µM | GI50 (EKVX NSCLC): 6.18 µM | TGI (EKVX NSCLC): > 25 µM | GI50 (LOX IMVI melanoma): 1.28 µM | TGI (LOX IMVI melanoma): 4.6 µM | GI50 (MDA-MB-231 breast): > 25 µM | TGI (MDA-MB-231 breast): > 25 µM | GI50 (HOP-62 NSCLC): > 25 µM | TGI (HOP-62 NSCLC): > 25 µM | GI50 (HS 578T breast): > 25 µM | TGI (HS 578T breast): > 25 µM | GI50 (MCF7 breast): 13 µM | TGI (MCF7 breast): > 25 µM | GI50 (NCI-H522 lung): 5.16 µM | TGI (NCI-H522 lung): > 25 µM | GI50 (U251 CNS): > 25 µM | TGI (U251 CNS): > 25 µM | GI50 (SNB-19 CNS): > 25 µM | TGI (SNB-19 CNS): > 25 µM | GI50 (HT29 colon): > 25 µM | TGI (HT29 colon): > 25 µM | GI50 (MALME-3M melanoma): > 25 µM | TGI (MALME-3M melanoma): > 25 µM | GI50 (K-562 leukemia): 13.6 µM | TGI (K-562 leukemia): > 25 µM | GI50 (786-0 renal): > 25 µM | TGI (786-0 renal): > 25 µM | GI50 (OVCAR-8 ovarian): > 25 µM | TGI (OVCAR-8 ovarian): > 25 µM | GI50 (SK-OV-3 ovarian): > 25 µM | TGI (SK-OV-3 ovarian): > 25 µM | GI50 (BT-549 breast): > 25 µM | TGI (BT-549 breast): > 25 µM | GI50 (HCT-116 colon): > 25 µM | TGI (HCT-116 colon): > 25 µM | GI50 (NCI-H226 lung): > 25 µM | TGI (NCI-H226 lung): > 25 µM | GI50 (OVCAR-4 ovarian): > 25 µM | TGI (OVCAR-4 ovarian): > 25 µM | GI50 (NCI-H23 lung): > 25 µM | TGI (NCI-H23 lung): > 25 µM | GI50 (UACC-62 melanoma): > 25 µM | TGI (UACC-62 melanoma): > 25 µM | GI50 (T-47D breast): 12.1 µM | TGI (T-47D breast): > 25 µM | GI50 (HCT-15 colon): > 25 µM | TGI (HCT-15 colon): > 25 µM | GI50 (ACHN renal): 10.6 µM | TGI (ACHN renal): > 25 µM | GI50 (UO-31 renal): 17 µM | TGI (UO-31 renal): > 25 µM
